Common to all, as to assay: FP displacement (competition) of FITC-15 AA CRIPT by library peptide, IC50 and Ki
For one test, the target named is PSG G322A G335A (PSD-95). The following applies: for IC50: read-out: IC50 (µM), PSG G322A G335A.
The target of the next test is PSG G335A (PSD-95). The following applies: for IC50: read-out: IC50 (µM), PSG G335A; for Ki: read-out: Ki (µM), PSG G335A.
The target of the next test is PSG G322A (PSD-95). The following applies: for IC50: read-out: IC50 (µM), PSG G322A; for Ki: read-out: Ki (µM), PSG G322A.
The mark [1] stands for this setting: FP displacement of FITC-15 AA CRIPT probe by PSD library peptide, protein PSG G322A G335A.
Setting [2] is: read-out: Ki (µM), PSG G322A G335A, FP displacement of FITC-15 AA CRIPT probe by PSD library peptide, protein PSG G322A G335A.
Setting [3] is: FP displacement of FITC-15 AA CRIPT probe by PSD library peptide, protein PSG G335A.
Where [4] appears, read: FP displacement of FITC-15 AA CRIPT probe by acetylated PSD library peptide (P-13 to P0 plus extra N-terminal Y).
[5] abbreviates: read-out: Ki (µM), PSG G322A G335A, FP displacement of FITC-15 AA CRIPT probe by acetylated PSD library peptide.
Setting [6] is: FP displacement of FITC-15 AA CRIPT probe by acetylated PSD library peptide.
Setting [7] is: FP displacement of FITC-15 AA CRIPT probe by PSD library peptide, protein PSG G322A.

These results are taken from article PMC9490041, “Determinants of affinity, specificity, and phase separation in a supramodule from Post-synaptic density protein 95” (iScience, 2022).

Read-outs that look alike come from different tables or passages of the source. Ends that are not written are not given here.

The term IC50 denotes the point on the concentration scale where inhibition reaches its midpoint. The term Ki denotes the dissociation constant of the complex between target and ligand, obtained from inhibition or displacement. Consider `CC[C@H](C)[C@H](NC(=O)[C@H](CCC(=O)O)NC(=O)[C@@H](NC(=O)[C@H](C)NC(=O)[C@@H](NC(=O)[C@@H](NC(=O)[C@H](CC(=O)O)NC(=O)[C@H](CCC(=O)O)NC(=O)[C@H](Cc1ccc(O)cc1)NC(=O)[C@@H]1CCCN1C(=O)[C@@H](NC(=O)[C@H](CC(=O)O)NC(=O)[C@H](C)NC(=O)CNC(=O)[C@H](Cc1ccc(O)cc1)NC(C)=O)[C@@H](C)CC)[C@@H](C)CC)[C@@H](C)CC)[C@@H](C)O)C(=O)O` [LZTS1], for which the IC50 at PSG G322A G335A (PSD-95) (setting [1]) was found to be 1120 µM; at PSG G335A (PSD-95) (setting [3]) it was 648 µM. The Ki on PSG G322A G335A (PSD-95) (setting [2]) came to 388 µM; on PSG G335A (PSD-95) (setting [3]) it was 231 µM.
With `CC[C@H](C)[C@H](NC(=O)[C@H](Cc1ccccc1)NC(=O)[C@H](Cc1ccc(O)cc1)NC(=O)[C@@H]1CCCN1C(=O)[C@H](CCC(N)=O)NC(=O)[C@H](Cc1ccc(O)cc1)NC(C)=O)C(=O)N[C@H](C(=O)N[C@@H](CC(N)=O)C(=O)N[C@@H](CO)C(=O)N[C@@H](CCCCN)C(=O)N[C@H](C(=O)N[C@@H](CCC(=O)O)C(=O)N[C@H](C(=O)N[C@H](C(=O)N[C@H](C(=O)O)C(C)C)[C@@H](C)O)C(C)C)[C@@H](C)O)[C@@H](C)O` [SHSA9], the values for the IC50 at PSG G322A G335A (PSD-95) (setting [4]), on PSG G322A (PSD-95) (setting [6]) and at PSG G335A (PSD-95) (setting [6]) were 994 µM, 756 µM and 1130 µM, respectively. In addition, the Ki on PSG G322A G335A (PSD-95) (setting [5]) was 344 µM; at PSG G322A (PSD-95) (setting [6]), 328 µM; at PSG G335A (PSD-95) (setting [6]), 404 µM.
Regarding `CC(=O)N[C@@H](Cc1ccc(O)cc1)C(=O)N[C@@H](CC(=O)O)C(=O)N[C@@H](CCCCN)C(=O)N[C@@H](CCCNC(=N)N)C(=O)N[C@@H](CC(=O)O)C(=O)N[C@@H](CO)C(=O)N[C@@H](CCC(=O)O)C(=O)N[C@@H](CCC(=O)O)C(=O)N[C@@H](CCC(=O)O)C(=O)N[C@@H](CO)C(=O)N[C@@H](CCC(=O)O)C(=O)N[C@@H](CO)C(=O)N[C@H](C(=O)N[C@@H](C)C(=O)N[C@@H](CC(C)C)C(=O)O)[C@@H](C)O` [RHG44], the IC50 on PSG G322A G335A (PSD-95) (setting [1]) was 944 µM; on PSG G322A (PSD-95) (setting [7]) it was 1210 µM. The Ki was found to be 327 µM at PSG G322A G335A (PSD-95) (setting [2]) and 526 µM at PSG G322A (PSD-95) (setting [7]).
With Ac-YQETLFVGNDQVSEI [TM108], at PSG G322A G335A (PSD-95) (setting [4]), the IC50 stood at 1070 µM. For the same compound, the Ki on PSG G322A G335A (PSD-95) (setting [5]) stood at 370 µM.
Regarding Ac-YERAANREEALEWEF [CUX2], at PSG G322A G335A (PSD-95) (setting [2]), the Ki was determined as 351 µM. Also, on PSG G322A (PSD-95) (setting [7]), the IC50 was 701 µM and the inhibition constant Ki came out at 304 µM.
Regarding `CC(=O)N[C@@H](Cc1ccc(O)cc1)C(=O)N[C@@H](C)C(=O)N1CCC[C@H]1C(=O)N[C@@H](C)C(=O)N[C@H](C(=O)N[C@@H](CO)C(=O)N1CCC[C@H]1C(=O)N1CCC[C@H]1C(=O)N[C@@H](CCC(=O)O)C(=O)N[C@@H](CCCNC(=N)N)C(=O)N[C@@H](C)C(=O)N[C@@H](CC(C)C)C(=O)N[C@@H](CO)C(=O)N[C@@H](CCCCN)C(=O)N[C@@H](CC(C)C)C(=O)O)[C@@H](C)O` [TUTLB], the half-inhibitory concentration (IC50) on PSG G322A G335A (PSD-95) (setting [4]) came out at 1810 µM; on PSG G322A (PSD-95) (setting [6]) it was 1730 µM; at PSG G335A (PSD-95) (setting [6]) it was 721 µM. In addition, the Ki on PSG G322A G335A (PSD-95) (setting [5]) is 625 µM; at PSG G322A (PSD-95) (setting [6]), 752 µM; on PSG G335A (PSD-95) (setting [6]), 257 µM.
Consider `CC(=O)N[C@@H](Cc1ccc(O)cc1)C(=O)N[C@@H](Cc1ccc(O)cc1)C(=O)N[C@@H](CCC(=O)O)C(=O)N[C@H](C(=O)N[C@@H](CO)C(=O)N[C@@H](Cc1c[nH]cn1)C(=O)N[C@@H](Cc1ccc(O)cc1)C(=O)N1CCC[C@H]1C(=O)N[C@@H](C)C(=O)N[C@@H](CO)C(=O)N1CCC[C@H]1C(=O)N[C@@H](CC(=O)O)C(=O)N[C@@H](CO)C(=O)N[C@@H](Cc1c[nH]c2ccccc12)C(=O)N[C@H](C(=O)O)C(C)C)[C@@H](C)O` [CTND2], for which the values for the IC50 on PSG G322A G335A (PSD-95) (setting [1]), at PSG G322A (PSD-95) (setting [7]) and at PSG G335A (PSD-95) (setting [3]) were 465 µM, 694 µM and 1020 µM, respectively. Further, the values for the inhibition constant (Ki) on PSG G322A G335A (PSD-95) (setting [2]), at PSG G322A (PSD-95) (setting [7]) and on PSG G335A (PSD-95) (setting [3]) were 161 µM, 301 µM and 364 µM, respectively.
On to Ac-YVMQDESFPASKIEL [MAP1B], for which, on PSG G322A (PSD-95) (setting [7]), the IC50 was determined as 914 µM and the Ki worked out at 396 µM.
Regarding `CC[C@H](C)[C@H](NC(=O)[C@H](CC(=O)O)NC(=O)[C@H](CCC(N)=O)NC(=O)CNC(=O)[C@@H](NC(=O)[C@H](CC(C)C)NC(=O)[C@@H]1CCCN1C(=O)[C@H](Cc1ccc(O)cc1)NC(C)=O)C(C)C)C(=O)N[C@H](C(=O)N[C@@H](CC(=O)O)C(=O)N[C@@H](CC(C)C)C(=O)N[C@@H](CCC(N)=O)C(=O)N[C@H](C(=O)N[C@@H](CCC(=O)O)C(=O)N[C@H](C(=O)O)C(C)C)[C@@H](C)O)[C@@H](C)CC` [ADGRB1], the Ki was found to be 39 µM at PSG G322A G335A (PSD-95) (FP displacement of 5 nM FITC-15 AA CRIPT by non-labeled acetylated peptide, room temperature, Ki from IC50, PSG G322A G335A); 112 µM at PSG G322A (PSD-95) (setting [6]); 87 µM at PSG G335A (PSD-95) (setting [6]). The half-maximal inhibitory concentration (IC50) was 112 µM on PSG G322A G335A (PSD-95) (setting [4]), 258 µM at PSG G322A (PSD-95) (setting [6]) and 245 µM at PSG G335A (PSD-95) (setting [6]).
With `CC(=O)N[C@@H](Cc1ccc(O)cc1)C(=O)N[C@H](C(=O)N[C@@H](CCC(=O)O)C(=O)N[C@@H](CO)C(=O)N[C@@H](CC(C)C)C(=O)N[C@@H](CO)C(=O)N[C@@H](CO)C(=O)N[C@@H](CCC(=O)O)C(=O)N[C@@H](CO)C(=O)N[C@H](C(=O)N[C@@H](C)C(=O)N[C@H](C(=O)N[C@@H](CO)C(=O)N1CCC[C@H]1C(=O)N[C@H](C(=O)O)C(C)C)[C@@H](C)O)[C@@H](C)O)C(C)C` [TNR16], the IC50 at PSG G322A G335A (PSD-95) (setting [4]) worked out at 880 µM; on PSG G322A (PSD-95) (setting [6]), 867 µM. For the same compound, the inhibition constant Ki on PSG G322A G335A (PSD-95) (setting [5]) amounted to 304 µM; on PSG G322A (PSD-95) (setting [6]), 376 µM.
Turning to `CC[C@H](C)[C@H](NC(=O)[C@H](CCCNC(=N)N)NC(=O)[C@H](CCCNC(=N)N)NC(=O)[C@H](CCC(N)=O)NC(=O)[C@H](CC(N)=O)NC(=O)[C@H](CC(C)C)NC(=O)CNC(=O)[C@H](CO)NC(=O)[C@H](Cc1ccc(O)cc1)NC(=O)[C@H](CC(C)C)NC(=O)[C@H](CC(=O)O)NC(=O)[C@H](CCCNC(=N)N)NC(=O)[C@H](CCC(N)=O)NC(=O)CNC(=O)[C@H](Cc1ccc(O)cc1)NC(C)=O)C(=O)O` [CD3E], on PSG G322A (PSD-95) (setting [7]), the IC50 stood at 757 µM and the Ki came to 328 µM.
Regarding Ac-YEPPEPKKSRRSVLL [CDC42], the IC50 on PSG G322A G335A (PSD-95) (setting [1]) stood at 1100 µM; at PSG G322A (PSD-95) (setting [7]), 952 µM; at PSG G335A (PSD-95) (setting [3]), 1180 µM. Besides, the inhibitory constant (Ki) was 381 µM at PSG G322A G335A (PSD-95) (setting [2]) and 421 µM on PSG G335A (PSD-95) (setting [3]).
Ac-YQSGPFIWIPSKEKL [DLG2]: the half-maximal inhibitory concentration (IC50) at PSG G322A G335A (PSD-95) (setting [4]) stood at 734 µM; at PSG G322A (PSD-95) (setting [6]) it was 1420 µM; at PSG G335A (PSD-95) (setting [6]), 2120 µM. Also, the Ki at PSG G322A G335A (PSD-95) (setting [5]) was determined as 254 µM; at PSG G322A (PSD-95) (setting [6]), 615 µM; on PSG G335A (PSD-95) (setting [6]), 758 µM.
As to Ac-YYETGSLSFAGDERI [SEZ6], the IC50 at PSG G322A G335A (PSD-95) (setting [1]) was found to be 1700 µM. The Ki on PSG G322A G335A (PSD-95) (setting [2]) is 590 µM.
Take `CC(=O)N[C@@H](Cc1ccc(O)cc1)C(=O)N[C@@H](Cc1ccccc1)C(=O)N[C@H](C(=O)N[C@@H](Cc1ccc(O)cc1)C(=O)N[C@@H](Cc1c[nH]cn1)C(=O)N[C@H](C(=O)N[C@@H](CO)C(=O)N[C@@H](CC(=O)O)C(=O)NCC(=O)N[C@@H](CC(=O)O)C(=O)N[C@@H](C)C(=O)N[C@@H](CC(C)C)C(=O)N[C@@H](CC(C)C)C(=O)N[C@@H](CC(C)C)C(=O)N[C@@H](CC(C)C)C(=O)O)[C@@H](C)O)[C@@H](C)O` [CX3C1]: the IC50 at PSG G322A G335A (PSD-95) (setting [1]) was found to be 740 µM. Also, the Ki on PSG G322A G335A (PSD-95) (setting [2]) is 256 µM.
For `CSCC[C@H](NC(=O)[C@H](CC(N)=O)NC(=O)[C@H](CCCCN)NC(=O)[C@H](CC(C)C)NC(=O)[C@@H](NC(=O)[C@H](CC(=O)O)NC(=O)[C@H](Cc1ccc(O)cc1)NC(C)=O)C(C)C)C(=O)N[C@H](C(=O)N[C@@H](CC(=O)O)C(=O)N[C@@H](CCCCN)C(=O)N[C@@H](C)C(=O)N1CCC[C@H]1C(=O)N1CCC[C@H]1C(=O)NCC(=O)N[C@H](C(=O)O)C(C)C)[C@@H](C)O` [CK2N1], the figures for the IC50 at PSG G322A G335A (PSD-95) (setting [4]) and at PSG G322A (PSD-95) (setting [6]) were 940 µM and 824 µM, respectively. Moreover, the figures for the Ki on PSG G322A G335A (PSD-95) (setting [5]) and at PSG G322A (PSD-95) (setting [6]) were 325 µM and 357 µM, respectively.
